{
  "source": "patent US12605382B2",
  "about": "“Pharmaceutical composition for preventing, alleviating, or treating cancer containing 2,6-dichloro-4-(4-(4-hydroxycyclohexylamino)-7H- pyrrolo[2,3-d]pyrimidin-5-yl)phenol as active ingredient” (JBKLAB CO., LTD., priority 2021, dated 2026)",
  "key": {"[1]": {"system": "tumor tissues (MDA-MB-231)", "test": "H&E staining of tumor tissue, cell necrosis areas", "format": "in vivo, BALB/c-nude mice", "details": "T4, T5 and T6 groups", "description": "An experiment was performed to confirm the tumor necrosis effect of the compound of Example 1, the active ingredient of the pharmaceutical composition of the present invention, by measuring the number of apoptotic bodies in tumors and H&E staining of the tumor tissues in BALB/c-nude mice injected with cancer cell lines.\nThen, the sections were stained with hematoxylin and eosin, and cell necrosis areas were observed."}, "breast cancer cell line": {"system": "breast cancer cell line", "test": "Formation of mammospheres in a breast cancer cell line", "format": "cell-based"}, "CD68+ macrophages": {"system": "CD68+ macrophages", "test": "Immunocytochemistry (IHC) analysis of tumor tissue, 4T1 allograft model", "format": "in vivo, BALB/c mice", "source_text": "(§1) In order to evaluate changes in the expression of proteins such as BRD4 and HIF-1α, the tumor cells isolated in Example 10 were subjected to immunocytochemistry (IHC) analysis to evaluate the changes in protein expression in the tumor microenvironment according to the treatment method.\n(§2) Specifically, tumor tissue was extracted, fixed in 4% paraformaldehyde, and embedded in paraffin to create blocks. The paraffin block containing the tissue was sliced transversely to a thickness of 4 μm and attached to a slide. Paraffin was removed from the tissue attached to the slide using xylene and ethanol, and endogenous peroxidase was removed from the tissue by immersing the slide in a solution of 3% H2O2 in methanol for 10 minutes at room temperature. Then, for antigen retrieval, the slide was placed in 0.01 M sodium citrate buffer (pH 6.0) and boiled. In order to eliminate non-specific binding, FcR on the cell surface was blocked using 5% normal goat serum. Then, the slide was incubated overnight at 4° C. with primary antibodies (HIF-1a (SantaCruz, sc-13515), PD-L1 (Abcam, ab2025921), CD8 (Abcam, ab203035), and CD68 (CellSignaling, 97778)). Secondary antibodies were attached and color development was induced using ImmPRESSGoat Anti-Rat IgG (Mouse Adsorbed) Polymer kit (Vector Laboratories), Abcam (ab150165, ab150081), and REAL En Visiondetection system (Dako). The stained tissue was observed under an Axioskop40 optical microscope (Carl Zeiss) at 40× magnification, and the images were saved using AxioVision4.7 software. The expression level was measured through the area of the stained region in the photograph using Image J software (NIH, Bethesda). Average density values were calculated from at least three slides per sample."}, "CD8+ T cells": {"system": "CD8+ T cells", "test": "Immunocytochemistry (IHC) analysis of tumor tissue, 4T1 allograft model", "format": "in vivo, BALB/c mice", "source_text": "as §1, §2"}, "HIF-1α": {"system": "HIF-1α", "test": "Immunocytochemistry (IHC) analysis of tumor tissue, 4T1 allograft model", "format": "in vivo, BALB/c mice", "source_text": "as §1, §2"}, "PD-L1": {"system": "PD-L1", "test": "Immunocytochemistry (IHC) analysis of tumor tissue, 4T1 allograft model", "format": "in vivo, BALB/c mice", "source_text": "as §1, §2"}, "Brd4": {"system": "Brd4", "test": "Immunocytochemistry (IHC) analysis of tumor tissue, 4T1 allograft model", "format": "in vivo, BALB/c mice", "source_text": "as §1, §2"}, "Huh-7": {"system": "Huh-7", "test": "Cell viability alone and in combination with sorafenib", "format": "cell-based, Human", "description": "Human liver cancer cell lines (SK Hep1 and Huh-7) were treated with control (no treatment), 0.1 μM of the compound of Example 1, 1 μM of sorafenib, and 0.1 μM of the compound of Example 1/1 μM of sorafenib, and the cell viability of SK Hep1 and Huh-7 was confirmed."}},
  "data": [
    {"smiles": "Oc1c(Cl)cc(-c2c[nH]c3ncnc(N[C@H]4CC[C@H](O)CC4)c23)cc1Cl", "note": "[Example 1, (trans)-2,6-dichloro-4-(4-(4-hydroxycyclohexylamino)-7H-pyrrolo[2,3-d]pyrimidin-5-yl)phenol]", "values": [
      {"measurement": "areas of tissue necrosis compared to NC group (H&E)", "setting": "[1]", "value": "more areas of tissue necrosis"},
      {"measurement": "formation of mammospheres", "setting": "breast cancer cell line", "value": "inhibits"},
      {"measurement": "population of CD68+ macrophages in tumor tissue", "setting": "CD68+ macrophages", "value": "significantly (P<0.01) reduced"},
      {"measurement": "population of CD8+ T cells", "setting": "CD8+ T cells; alone", "value": "increased"},
      {"measurement": "population of CD8+ T cells", "setting": "CD8+ T cells; combined with radiation", "value": "further increased (synergistic effect)"},
      {"measurement": "HIF-1α expression in tumor tissue", "setting": "HIF-1α", "value": "significantly (P<0.05) reduced"},
      {"measurement": "expression of PD-L1", "setting": "PD-L1", "value": "significantly (P<0.01) decreased"},
      {"measurement": "Brd4 expression in tumor tissue", "setting": "Brd4", "value": "significantly (P<0.001) reduced"},
      {"measurement": "cell viability", "setting": "Huh-7; 0.1 μM Example 1 combined with 1 μM sorafenib", "value": "further inhibited (synergistic effect)"},
      {"measurement": "cell viability", "setting": "Huh-7; 0.1 μM alone", "value": "suppressed"}
    ]}
  ]
}
